Data set [1] concerns differentiated primary human airway epithelial cells. In words: Co-culture model: epithelial cell toxicity by transepithelial resistance. To be noted: at a decrease in bacterial counts by two orders of magnitude, Figure 9. Type of data set: cell-based. An excerpt:
The antimicrobial peptides of the invention display selective toxicity to target microorganisms and minimal toxicity to mammalian cells. Determining the toxicity of the peptides claimed in this invention on mammalian cells is preferably performed using tissue culture assays. For mammalian cells, such assay methods include, inter alia, trypan blue exclusion and MTT assays (see Moore et al., 1994, Peptide Research 7:265-269). […] In addition, the disruption of the transepithelial resistance (Rte) of a cell monolayer that have formed tight junctions can be monitored. […]
Preparation of eukaryotic cells. […] In order to release viable bacteria, trypsin/EDTA was added and these preparations were plated on standard bacteriologic media to quantify bacterial survival. Similarly prepared cells were monitored for peptide toxicity by measuring transepithelial resistance. […]
Based on above in vitro findings, WLSA-5 (SEQ ID NO:3) was tested in a scenario that more accurately assessed its selective toxicity. […] The ability of peptide to kill bacteria is monitored as a function of viable bacteria associated with the epithelial cells after peptide exposure. […]

For data set [2], the system named is Pseudomonas aeruginosa. To be noted: 1x10^5 colony-forming units; cited from earlier work.
For data set [3], the system named is Staphylococcus aureus. To be noted: 1x10^5 colony-forming units; cited from earlier work.
Data set [4] has as its system Ca^2+-saturated calmodulin. The conditions noted are these: host cell Ca^2+-saturated calmodulin; cited from earlier work.

Residues, ends and D or L forms follow the SMILES beside them.

On to `CC[C@H](C)[C@H](NC(=O)[C@H](C)NC(=O)[C@H](CCCNC(=N)N)NC(=O)[C@H](CS)NC(=O)[C@H](Cc1c[nH]c2ccccc12)NC(=O)[C@H](CCCNC(=N)N)NC(=O)[C@H](CCC(N)=O)NC(=O)[C@@H](NC(=O)[C@@H](NC(=O)[C@H](CCCNC(=N)N)NC(=O)[C@@H](NC(=O)[C@H](Cc1c[nH]c2ccccc12)NC(=O)[C@@H](N)CCCNC(=N)N)[C@@H](C)CC)C(C)C)C(C)C)C(=O)N[C@@H](CCCNC(=N)N)C(=O)N[C@@H](Cc1c[nH]cn1)C(=O)N[C@H](C(=O)N[C@@H](Cc1c[nH]c2ccccc12)C(=O)N[C@@H](CCCNC(=N)N)C(=O)N[C@@H](CCCNC(=N)N)C(=O)N[C@H](C(=O)N[C@@H](CCCNC(=N)N)C(=O)N[C@@H](CCC(N)=O)C(=O)NCC(=O)N[C@@H](CC(C)C)C(=O)N[C@@H](CCCNC(=N)N)C(=O)N[C@@H](CCCNC(=N)N)C(=O)N[C@@H](Cc1c[nH]c2ccccc12)C(=O)N[C@@H](CC(C)C)C(=O)N[C@@H](CCCNC(=N)N)C(=O)N[C@H](C(=O)N[C@H](C(=O)O)C(C)C)C(C)C)[C@@H](C)CC)[C@@H](C)CC` [WLSA-5] (H-RWIRVVQRWCRAIRHIWRRIRQGLRRWLRVV-OH), for which the “change in transepithelial resistance” value in data set [1] was “less than 50%”.

Consider `CC[C@H](C)[C@H](NC(=O)[C@H](C)NC(=O)[C@H](CCCNC(=N)N)NC(=O)[C@H](CS)NC(=O)[C@H](C)NC(=O)CNC(=O)[C@H](CCC(N)=O)NC(=O)[C@@H](NC(=O)[C@@H](NC(=O)[C@H](CCC(=O)O)NC(=O)[C@@H](NC(=O)[C@@H](NC(=O)[C@@H](N)CCCNC(=N)N)C(C)C)[C@@H](C)CC)C(C)C)C(C)C)C(=O)N[C@@H](CCCNC(=N)N)C(=O)N[C@@H](Cc1c[nH]cn1)C(=O)N[C@H](C(=O)N1CCC[C@H]1C(=O)N[C@@H](CCCNC(=N)N)C(=O)N[C@@H](CCCNC(=N)N)C(=O)N[C@H](C(=O)N[C@@H](CCCNC(=N)N)C(=O)N[C@@H](CCC(N)=O)C(=O)NCC(=O)N[C@@H](CC(C)C)C(=O)N[C@@H](CCC(=O)O)C(=O)N[C@@H](CCCNC(=N)N)C(=O)N[C@H](C(=O)N[C@@H](CC(C)C)C(=O)O)[C@@H](C)CC)[C@@H](C)CC)[C@@H](C)CC` [LLP1] (H-RVIEVVQGACRAIRHIPRRIRQGLERIL-OH; N-terminus and C-terminus assumed), for which the “time to nearly sterilize a suspension” value in data set [2] and in data set [3] was no more than 60 s each time. The affinity for calmodulin entry in data set [4] is listed as “near nanomolar affinity”.

The record behind these values is EP1368050B1, “VIRUS DERIVED ANTIMICROBIAL PEPTIDES” (priority 2001, dated 2008).
